The source made the active and inactive calls. The rule behind the calls is not given here.
What was measured:
Mus musculus [1] = assay: Anticonvulsant activity in CF1 albino mouse assessed as prevention of subcutaneous pentylenetetrazole-induced seizure at 300 mg/kg, ip after 4 hrs; type: functional, organism-based; set-up: dose 300 mg/kg
Mus musculus [2] = assay: Anticonvulsant activity in ip dosed CF1 albino mouse assessed as prevention of maximal electroshock-induced seizures after 0.5 hrs; type: functional
Mus musculus [3] = assay: Neurotoxicity in ip dosed CF1 albino mouse after 0.5 hrs by rotarod test; type: toxicity, organism-based; conditions: in vivo
Mus musculus [4] = assay: Anticonvulsant activity in CF1 albino mouse assessed as prevention of subcutaneous pentylenetetrazole-induced seizure at 300 mg/kg, ip after 0.5 hrs; type: functional, organism-based; set-up: dose 300 mg/kg
Mus musculus [5] = assay: Anticonvulsant activity in CF1 albino mouse assessed as prevention of maximal electroshock-induced seizures at 300 mg/kg, ip after 4 hrs; type: functional, organism-based; set-up: dose 300 mg/kg
Rattus norvegicus = assay: Sedative-hypnotic effect in Sprague-Dawley albino rat assessed as increase in sleep time at 100 mg/kg, ip by phenobarbitone-induced hypnosis test; type: functional; conditions: route intraperitoneal
Mus musculus [6] = assay: Anticonvulsant activity in ip dosed CF1 albino mouse assessed as prevention of maximal electroshock-induced seizures after 4 hrs; type: functional
Mus musculus [7] = assay: Anticonvulsant activity in ip dosed CF1 albino mouse assessed as prevention of subcutaneous pentylenetetrazole-induced seizure after 0.5 hrs; type: functional
Mus musculus [8] = assay: Neurotoxicity in ip dosed CF1 albino mouse after 4 hrs by rotarod test; type: toxicity, organism-based; conditions: in vivo
Mus musculus [9] = assay: Anticonvulsant activity in CF1 albino mouse assessed as prevention of maximal electroshock-induced seizures at 300 mg/kg, ip after 0.5 hrs; type: functional, organism-based; set-up: dose 300 mg/kg

SMILES | Activity (Mus musculus [1]) | Activity (Mus musculus [2]) [mg/kg] | Activity (Mus musculus [3]) [mg/kg] | Activity (Mus musculus [4]) | Activity (Mus musculus [5]) | Activity (Rattus norvegicus) [%] | Activity (Mus musculus [6]) [mg/kg] | Activity (Mus musculus [7]) [mg/kg] | Activity (Mus musculus [8]) [mg/kg] | Activity (Mus musculus [9])
N=c1snc(Nc2ccncc2)n1-c1ccncc1 | inactive | 300 | 100 | inactive | inactive | – | – | – | – | –
N=c1snc(N)n1-c1ccccn1 | inactive | 300 | 100 | inactive | inactive | – | – | – | – | –
N=c1snc(Nc2ncccn2)n1-c1ncccn1 | inactive | 100 | 100 | inactive | inactive | 11.4 | – | – | – | –
CCOc1ccc(Nc2nsc(=N)n2-c2ccc(OCC)cc2)cc1 | inactive | 30 | 300 | – | – | 55.6 | 300 | 300 | – | –
N=c1snc(N)n1-c1cccnc1 | inactive | 300 | 100 | inactive | inactive | – | – | – | – | –
N=c1snc(N)n1-c1ccc(Cl)cc1 | inactive | 300 | 100 | inactive | inactive | – | – | – | – | –
NC(=O)N1c2ccccc2C=Cc2ccccc21 [CARBAMAZEPINE] | inactive | 30 | 100 | – | inactive | – | – | 100 | 300 | –
N=c1snc(Nc2ccc(F)cc2)n1-c1ccc(F)cc1 | inactive | 100 | 300 | inactive | – | 5.1 | 300 | – | – | –
COc1ccc(-n2c(N)nsc2=N)cc1 | inactive | 300 | – | inactive | inactive | – | – | – | – | –
O=C1NC(=O)C(c2ccccc2)(c2ccccc2)N1 [PHENYTOIN] | inactive | 30 | 100 | inactive | – | – | 100 | – | 100 | –
N=c1snc(N)n1-c1ccncc1 | inactive | 300 | 100 | inactive | inactive | – | – | – | – | –
CCOc1ccc(-n2c(N)nsc2=N)cc1 | inactive | 100 | 100 | inactive | inactive | 46.8 | – | – | – | –
N=c1snc(Nc2cccnc2)n1-c1cccnc1 | inactive | 300 | 100 | inactive | inactive | – | – | – | – | –
N=c1snc(N)n1-c1ccc(F)cc1 | inactive | 100 | 100 | inactive | – | 20.2 | 300 | – | – | –
N=c1snc(Nc2cccc3ccccc23)n1-c1cccc2ccccc12 | inactive | 30 | 300 | inactive | – | 16.4 | 300 | – | – | –
N=c1snc(Nc2ccccn2)n1-c1ccccn1 | inactive | 300 | 100 | inactive | inactive | – | – | – | 300 | –
N=c1snc(N)n1-c1ncccn1 | inactive | – | 100 | inactive | inactive | – | – | – | – | inactive
N=c1snc(N)n1-c1ccc(Br)cc1 | inactive | 300 | – | inactive | inactive | – | – | – | – | –
N=c1snc(N)n1-c1cccc2ccccc12 | inactive | 30 | 300 | inactive | inactive | 8.8 | – | – | 300 | –

— ChEMBL document CHEMBL1149803, “Synthesis and anticonvulsant activity of some novel 3-aryl amino/amino-4-aryl-5-imino-Delta2-1,2,4-thiadiazoline” (Eur J Med Chem, 2008)
